Experiments:
[1] = tested on: primary cultured neurons treated with etoposide; test: Etoposide toxicity on primary cultured neurons; type: cell-based, mouse; settings: 20 μM etoposide; 10 μM polypeptide
Method: 25 μM Aβ1-43 was added to primary cultured cortical neurons in the presence (at indicated concentrations) or absence of sHN, sHNG, or sHNA. Addition of HN polypeptides was performed similarly to that described in FIG. 14. 72 hours after the initiation of Aβ treatment, cell death was measured by trypan blue exclusion assay. Primary cultured neurons treated similarly for 72 hours with 20 μM etoposide in the presence or absence of 10 μM sHN or HN derivatives were used as the positive controls in these experiments. Similar experiments were performed at least three times, and reproducible results were obtained. Mean ±S.D. values of three independent experiments are indicated in the graphs. […]
(§1) Trypan blue exclusion assay was performed as follows. […] Within 3 minutes of the trypan blue solution addition, stained cells were counted. Cell mortality was determined [100-cell survival rate (%)] based on the stained cell count. […] Specifically, 6 μM Calcein-AM (3′, 6′-Di-(O-acetyl)-2′-7′-bis[N,N-bis(carboxymethyl)aminomethyl]fluorescein, tetraacetoxymethyl ester; Dojindo, Cat. #349-07201) was added to the neurons; and 30 minutes or longer after Calcein-AM treatment, fluorescence (ex=490 nm, em=515 nm) was observed by fluorescence microscopy, and measured by a spectrometer. Specific fluorescence was calculated by subtracting basal fluorescence from total fluorescence. […]

[2] = tested on: primary cultured cortical neurons treated with Aβ1-43; test: Aβ1-43-induced cell damage of primary cultured cortical neurons, LDH release; type: cell-based, mouse
Method: Primary culture of mouse cortical neurons was performed in poly-D-lysine-coated 24-well plates (Sumitomo Bakelite) in the absence of serum and in the presence of N2 supplement, as described in literature (Ecksioglu, Y. Z. et al. (1994) Brain Res. 644, 282-90). The purity of neurons prepared according to the method was >98%. The prepared neurons (1.25×10^5/well, 250 μl media/well) were preincubated in the absence or presence of 10 nM or 10 μM sHN polypeptides for 16 hours; and were treated with 25 μM Aβ1-43 in the absence or presence of sHN polypeptides at the same concentrations for 24 to 72 hours. […]
as §1

[3] = tested on: F11 cells transfected with SOD1 mutants (A4T, G85R, G93A); test: ALS-associated SOD1 mutant-induced F11 cell death, trypan blue exclusion assay; type: cell-based, rat/mouse hybrid; settings: 100 μM polypeptide
Method: (§2) F11 cells (Platika, D. et al. (1985) Proc. Natl. Acad. Sci. U.S.A. 82, 3499-3503; Yamatsuji, T. et al. (1996) Science 272, 1349-1352) were cultured in HamF-12 media containing 18% fetal bovine serum (FBS) and antibiotics. 7×10^4/well of F11 cells were seeded into a 6-well plate; cultured in HamF-12 containing 18% FBS for 12 to 16 hours; transfected 3 hours with plasmids encoding FAD genes and plasmids encoding HN (pHN, and such) by lipofection in the absence of serum (1 μg of FAD cDNA expression plasmid, 1 μg of HN cDNA expression plasmid, 4 μl of LipofectAMINE, 8 μl of Plus reagent); and then, were cultured for 2 hours in HamF-12 media containing 18% FBS. Then, culture media were exchanged with HamF-12 media containing 10% FBS; and the cells were cultured for additional 67 hours. 72 hours after transfection, cell death was measured by trypan blue exclusion assay. Experiments using synthetic HN polypeptides were conducted as follows: F11 cells (at 7×10^4/well in a 6-well plate) were transfected 3 hours with FAD genes in the absence of serum, as mentioned above; after cultivation for 2 hours in HamF-12 media containing 18% FBS, the cells were cultured for 67 hours in HamF-12 media containing 10% FBS with various concentrations of HN polypeptides; and cell death was measured by trypan blue exclusion assay. ALS-associated mutant cDNAs of SOD1 were also similarly transfected, and examined for their neurotoxicity.
as §1

[4] = tested on: F11 cells transfected with FAD genes (V642I APP, NL-APP, M146L PS-1, N141I PS-2); test: FAD gene-induced F11 cell death, trypan blue exclusion assay; type: cell-based, rat/mouse hybrid
Method: as §2
(§3) Trypan blue exclusion assay was performed as follows. Without prewashing, the cells were suspended with gentle pipetting into a serum-free media. 50 μl of 0.4% trypan blue solution (Sigma, Cat. #T-8154) were added (final concentration of 0.08%) to 200 μl cell suspension, and the suspension was mixed at room temperature. Within 3 minutes of the trypan blue solution addition, stained cells were counted. Cell mortality was determined [100-cell survival rate (%)] based on the stained cell count. LDH assay was performed using a kit (LDH-Cytotoxic Test; Wako Pure Chemical Industries, Cat. #299-50601) by sampling 6 μl of media in which neurons were cultured. Calcein staining was performed as described in literature (Bozyczko-Coyne, D. et al. (1993) Journal of Neuroscience Methods 50, 205-216). Specifically, 6 μM Calcein-AM (3′, 6′-Di-(O-acetyl)-2′-7′-bis[N,N-bis(carboxymethyl)aminomethyl]fluorescein, tetraacetoxymethyl ester; Dojindo, Cat. #349-07201) was added to the neurons; and 30 minutes or longer after Calcein-AM treatment, fluorescence (ex=490 nm, em=515 nm) was observed by fluorescence microscopy, and measured by a spectrometer. Specific fluorescence was calculated by subtracting basal fluorescence from total fluorescence. Basal fluorescence was assigned to be the value calculated from linear trypan blue positivity-fluorescence intensity relationship, corresponding to 100% trypan blue positivity.

[5] = tested on: primary cultured cortical neurons treated with Aβ1-43; test: Aβ1-43-induced cell death of primary cultured cortical neurons, trypan blue exclusion assay; type: cell-based; settings: 25 μM Aβ1-43, confirmed by LDH release and Calcein staining
Method: Primary culture of mouse cortical neurons was performed in poly-D-lysine-coated 24-well plates (Sumitomo Bakelite) in the absence of serum and in the presence of N2 supplement, as described in literature (Ecksioglu, Y. Z. et al. (1994) Brain Res. 644, 282-90). The purity of neurons prepared according to the method was >98%. The prepared neurons (1.25×10^5/well, 250 μl media/well) were preincubated in the absence or presence of 10 nM or 10 μM sHN polypeptides for 16 hours; and were treated with 25 μM Aβ1-43 in the absence or presence of sHN polypeptides at the same concentrations for 24 to 72 hours. Since primary cultured neurons are damaged even by temporary dryness during medium exchange, treatment of the cells by Aβ1-43 was performed as follows. First, half of the volume of the old medium (125 μl) was discarded. Then, 125 μl of pre-warmed fresh medium containing 50 μM Aβ1-43 and sHN with a concentration indicated above were added to the culture.
as §3

[6] = tested on: F11/EcR cells transfected with ecdysone-inducible FAD gene plasmid; test: Ecdysone-induced FAD gene expression F11/EcR cell death, trypan blue exclusion assay; type: cell-based; settings: 1 μM; NL-APP, V642I APP, M146L PS-1, N141I PS-2; ecdysone 72 hours
Method: F11/EcR cell experiment using ecdysone was conducted as follows: F11/EcR cells were seeded at 7×10^4/well into a 6-well plate; cultured for 12 to 16 hours in HamF-12 media containing 18% FBS; and were similarly transfected in the absence of serum for 3 hours with 1 μg of ecdysone-inducible plasmid alone, or with 1 μg of HN-encoding plasmid, as mentioned above. After culturing for 12 to 16 hours in HamF-12 media containing 18% FBS, the cells were cultured for 2 hours in HamF-12 media containing 10% FBS, then ecdysone (Ponasterone) was added to the media (final concentration of 40 μM). Cell death was measured 72 hours after ecdysone treatment. […] Cell death was measured by trypan blue exclusion assay after 72 hours from the ecdysone treatment. […]
Trypan blue exclusion assay was performed as follows. […] Within 3 minutes of the trypan blue solution addition, stained cells were counted. Cell mortality was determined [100-cell survival rate (%)] based on the stained cell count. […] Specifically, 6 μM Calcein-AM (3′, 6′-Di-(O-acetyl)-2′-7′-bis[N,N-bis(carboxymethyl)aminomethyl]fluorescein, tetraacetoxymethyl ester; Dojindo, Cat. #349-07201) was added to the neurons; and 30 minutes or longer after Calcein-AM treatment, fluorescence (ex=490 nm, em=515 nm) was observed by fluorescence microscopy, and measured by a spectrometer. […]

[7] = tested on: F11 cells transfected with V642I APP cDNA; test: V642I APP-induced F11 cell death, trypan blue exclusion assay; type: cell-based
Method: as §2, §3

[8] = tested on: F11/EcR cells transfected with ecdysone-inducible Q79 plasmid; test: Polyglutamine Q79-induced F11/EcR cell death (ecdysone-inducible), trypan blue exclusion assay; type: cell-based; settings: 1 μM polypeptide, 72 hours
Method: F11/EcR cell experiment using ecdysone was conducted as follows: F11/EcR cells were seeded at 7×10^4/well into a 6-well plate; cultured for 12 to 16 hours in HamF-12 media containing 18% FBS; and were similarly transfected in the absence of serum for 3 hours with 1 μg of ecdysone-inducible plasmid alone, or with 1 μg of HN-encoding plasmid, as mentioned above. After culturing for 12 to 16 hours in HamF-12 media containing 18% FBS, the cells were cultured for 2 hours in HamF-12 media containing 10% FBS, then ecdysone (Ponasterone) was added to the media (final concentration of 40 μM). Cell death was measured 72 hours after ecdysone treatment. Experiments using synthetic HN polypeptides were conducted as follows: cells were similarly transfected for 3 hours with FAD genes in the absence of serum; cultured for 12 to 16 hours in HamF-12 media containing 18% FBS; cultured for 2 hours in HamF-12 media containing 10% FBS and various concentrations of HN polypeptide; and then, 40 μM Ponasterone was added to the media. Cell death was measured by trypan blue exclusion assay after 72 hours from the ecdysone treatment. HD/SCA-associated Q79 cDNAs were also similarly transfected, and the neurotoxicity was tested.
Trypan blue exclusion assay was performed as follows. […] Within 3 minutes of the trypan blue solution addition, stained cells were counted. Cell mortality was determined [100-cell survival rate (%)] based on the stained cell count. […] Specifically, 6 μM Calcein-AM (3′, 6′-Di-(O-acetyl)-2′-7′-bis[N,N-bis(carboxymethyl)aminomethyl]fluorescein, tetraacetoxymethyl ester; Dojindo, Cat. #349-07201) was added to the neurons; and 30 minutes or longer after Calcein-AM treatment, fluorescence (ex=490 nm, em=515 nm) was observed by fluorescence microscopy, and measured by a spectrometer. Specific fluorescence was calculated by subtracting basal fluorescence from total fluorescence. Basal fluorescence was assigned to be the value calculated from linear trypan blue positivity-fluorescence intensity relationship, corresponding to 100% trypan blue positivity.

[9] = tested on: primary cultured cortical neurons treated with Aβ1-43; test: Aβ1-43-induced cell death of primary cultured cortical neurons, trypan blue exclusion assay; type: cell-based; settings: 100 ng/ml

Compound	effect on toxic effect of etoposide [1]	effect on cell damage (LDH released) by Aβ1-43 ([2]; 25 μM Aβ1-43, 10 μM polypeptide)	effect on SOD1 mutant-induced cell death, synthetic polypeptide [3]	concentration blocking neuronal death induced by the FAD genes ([4]; NL-APP, M146L PS-1, N141I PS-2)	extracellular concentration at which neuronal death is suppressed ([4]; chemically synthesized polypeptide)	concentration of maximal (saturation) suppression of neuronal death ([4]; four types of AD genes, listed as Humanin)	effect on Aβ1-43-induced cell death ([5]; 10 nM polypeptide)	effect on Aβ1-43-induced cell death ([5]; 10 μM polypeptide)	effect on cell death by ecdysone-induced FAD genes, synthetic polypeptide [6]	suppression of V642I APP-induced cell death ([7]; 10 nM polypeptide)	suppression of V642I APP-induced cell death ([7]; 10 μM polypeptide)	IC50 ([7]; 72 h)	cell mortality (%) ([7]; V642I APP cDNA, treated with 10 μM sHN polypeptides, 72 hours, mean ±S.D.)	effect on Q79-induced cell death, synthetic polypeptide [8]	effect on increased LDH release induced by Aβ ([2]; 100 ng/ml)	effect on cell death of neurons induced by Aβ [9]
CC[C@H](C)[C@H](NC(=O)[C@H](CCC(=O)O)NC(=O)[C@H](CO)NC(=O)[C@@H](NC(=O)[C@H](CC(C)C)NC(=O)[C@H](CC(C)C)NC(=O)[C@H](CC(C)C)NC(=O)[C@H](CC(C)C)NC(=O)[C@H](CS)NC(=O)[C@H](CO)NC(=O)[C@H](Cc1ccccc1)NC(=O)CNC(=O)[C@H](CCCNC(=N)N)NC(=O)[C@@H]1CCCN1C(=O)[C@H](C)NC(=O)[C@@H](N)CCSC)[C@@H](C)O)C(=O)N[C@@H](CC(=O)O)C(=O)N[C@@H](CC(C)C)C(=O)N1CCC[C@H]1C(=O)N[C@H](C(=O)N[C@@H](CCCCN)C(=O)N[C@@H](CCCNC(=N)N)C(=O)N[C@@H](CCCNC(=N)N)C(=O)N[C@@H](C)C(=O)O)C(C)C [sHN]	could not prevent	completely restored to a level observed under basal conditions	couldn't be suppressed	1 µM	≥ 10 nM	about 10 μM	did not show any effect	completely restored to a level observed under basal conditions	significant suppressive effect	extremely weak suppression	dramatically suppressed	~100 nM	14.4 ± 1.2 %	Extensive cell death	–	–
NGF: NGF, tested at 100 ng/ml against Aβ-induced neuronal death [reference compound]	–	–	–	–	–	–	–	–	–	–	–	–	–	–	did not show effects	did not show effects
